Reference: US7759101B2, “Ginsenoside glycosidases hydrolyzing ginsenoside sugar moieties and uses thereof” (priority 2000, dated 2010)

Assays:
[1] = tested on: ginsenoside glycosidases from wheat bran; test: Hydrolysis of ginsenosides with ginsenoside glycosidases from wheat bran; format: biochemical; details: 10 ml of 1% ginsenoside substrate, 40° C., 20 hours
Procedure: 500 g of wheat bran was added to 2500 ml of 0.02 M acetate buffer pH 5 and extracted at 40° C. for 2 hours. 2000 ml of supernatant were obtained by filtration to which (NH4)2SO4 was added gradually with stirring until 70% saturation. The mixture stand at 4° C. overnight. Protein pellets were collected by centrifugation and redissolved in 80 ml of distilled water and dialyzed against 0.02 M acetate buffer pH 5.0. Insolubles were removed by centrifugation and the supernatant was adjusted to a volume of 200 ml to obtain the crude enzyme solution.
10 ml of the enzyme solution was allowed to react with 10 ml of 1% ginsenoside substrate at 40° C. for 20 hours.

[2] = tested on: ginsenoside glycosidases from A. niger; test: Hydrolysis of ginsenosides with crude ginsenoside glycosidases from A. niger, products measured by TLC; format: biochemical, Aspergillus niger; details: pH 5, 30° C., 18 hours
Procedure: Aspergillus niger FFCCDL-48 g was cultured in a medium containing 1% ginseng extracts and 3% wheat bran extracts at 30° C. for 54 hours. Cells were removed by centrifugation, after which (NH4)2SO4 powder was added to 2000 ml of the cell-free supernatant with stirring to 65% saturation. The solution was stored overnight at 4° C. and precipitated proteins were collected by centrifugation, resuspended in 80 ml of distilled water and dialyzed against 0.01M acetate buffer pH 5. Insolubles were removed by centrifugation, and the solution was adjusted to 200 ml with 0.01 M acetate buffer pH 5. The crude enzyme solution may be used to hydrolyze ginsenosides or to purify the enzymes.
100 mg each of ginsenosides Rb1, Rb2, Rc and Rd and 10 mg of ginsenoside Rg3 were dissolved in separate tubes containing 10 ml of 0.01M acetate buffer pH 5. 10 ml of the crude enzyme solution obtained in 1.1 was added to each tube and allowed to react at 30° C. for 18 hours. Then 10 ml of n-butanol was added to stop the reactions. The products were measured by thin layer chromatography (TLC) (Silica gel 60-F254, Merck; chloroform:methanol:water 70:30:5).
Experiments were carried out to explore the effects of temperature, pH, metal ions and reaction time on the enzyme reaction, in order to further characterize the enzymes.
100 mg of ginsenoside Rb1 was used in a reaction under the conditions as described in 1.2 and the effect of temperature was shown in Table 2.

[3] = tested on: Almond cellulose β-glucosidase(EC 3.2.1.21); test: Comparison: hydrolysis of ginsenosides with almond cellulose β-glucosidase; format: biochemical; details: substrate 0.5%, pH 5.0, 30° C., 18 hours
Description: (§1) To observe the differences between the ginsenoside glycosidases of the invention and known exo-cellulases, the ginsenoside glycosidases of the invention were compared with cellulose β-glucosidase (E.C. 3.2.1.21) in two reactions with 0.5% ginsenosides Rb1 or Rd as substrate.

[4] = tested on: Cellulose β-glucosidase of Clostridium and Bacillus (EC 3.2.1.21); test: Comparison: hydrolysis of ginsenosides with cellulose β-glucosidase of Clostridium and Bacillus; format: biochemical, Clostridium thermocopiriae and Bacillus sp. AX; details: substrate 0.5%, pH 5.0, 30° C., 18 hours
Description: as §1
Cellulose β-glucosidases (EC 3.2.1.21) from Clostridium thermocopiriae and Bacillus sp. AX cannot hydrolyze any glycosides of ginsenosides. The cellulose β-glucosidase from almond slightly hydrolyzes the C-20 glycoside of Rb1, Rb2 and Rc to give ginsenoside Rd, but it cannot hydrolyze the glucoside at C-3. Ginsenoside glycosidase II is similar to cellulose β-glucosidase from almond, but it only slightly hydrolyzes Rd. The properties of ginsenoside glycosidase III are totally different from those of cellulose β-glucosidases.

[5] = tested on: Cellobiose-producing enzyme from Clostridium; test: Comparison: hydrolysis of ginsenosides with cellobiose-producing enzyme; format: biochemical, Clostridium thermocopiriae; details: substrate 0.5%, pH 5.0, 30° C., 18 hours
Description: as §1
An exo-cellulase from Clostridium thermocopiriae (cellobiose-producing enzyme) cleaves cellodextrin to give cellobiose, but cannot hydrolyze diglucosidic bond at C-3 of ginsenoside Rd. So it is completely different from ginsenoside glycosidase III. Therefore, the ginsenoside glycosidases of the invention are enzymes different from known cellulose β-glucosidases and cellobiose-producing enzymes.

For CC(C)=CCC[C@](C)(O[C@@H]1O[C@H](CO)[C@@H](O)[C@H](O)[C@H]1O)[C@H]1CC[C@]2(C)[C@@H]1[C@H](O)C[C@@H]1[C@@]3(C)CC[C@H](O[C@@H]4O[C@H](CO)[C@@H](O)[C@H](O)[C@H]4O[C@@H]4O[C@H](CO)[C@@H](O)[C@H](O)[C@H]4O)C(C)(C)[C@@H]3CC[C@]12C [Rd, ginsenoside Rd], the “Percentage of F2 in the reaction product” value [1] was 40%, the “Percentage of Rd in the reaction product” value [1] was 60% and the “Percentage of C—K in the reaction product” value [2] was 25%. For the same compound, the “Percentage of F2 in the reaction product” value [2] was 50%, the “Percentage of Rd in the reaction product” value [2] was 15% and the “Percentage of Rh2 in the reaction product” value [2] was 5%. The “Percentage of aglycone in the reaction product” value [2] was 5%, the “Percentage of Rb1 in the reaction product” value (from here on “Percentage of Rb1”) [3] was 100% and the “Percentage of Rb1” value [4] was 100%. The “Percentage of Rb1” value [5] was 100%.
